pIC50: −log10 of the molar value. Like-named read-outs stand apart in the source and are kept apart here.
Assays:
[1] = target: YAP-TEAD protein interaction (His-TEAD1 (209-426) protein, Bio-YAP peptide (60-100)) (Homo sapiens, UniProt P28347); test: YAP-TEAD protein interaction HTRF experiment; type: binding; conditions: His-TEAD1 (209-426) 10 nM, Bio-YAP peptide 50 nM, read-out: Activity of each compound in blocking YAP-TEAD protein interaction (grades of IC50 values)
Procedure: In this example, the YAP-TEAD protein interaction HTRF experiment was used to detect the activity of each compound in blocking the YAP-TEAD protein interaction.
The experiment was carried out according to the following operation steps:
Step 1: His-TEAD1 (209-426) protein was added to a 384-well detection white plate to a final concentration of 10 nM, and buffer was used as the background signal well. The compounds to be tested were subjected to 3-fold dilution and a total of 10 concentration gradients were set up, and each diluted solution was mixed well. A certain volume of the compound to be tested was added to each well separately, 2 replicates were set for each concentration, and the final concentration of DMSO was controlled at 1%. Incubation was carried out at room temperature for 20 minutes. The amino acid sequence of TAED1 (209-426) used in this step is shown in SEQ ID NO: 1:
After mixing evenly, the mixture was incubated at room temperature for 10 minutes.
Step 3: Anti-His-Eu cryptate gold and streptavidin-XL665 were diluted according to the instructions and mixed in equal proportions. A certain volume of the detection reagent was added to the well, and the mixture was incubated at room temperature for 1 hour.
Step 4: The signal was detected using an Envision (Perkin Elmer) microplate reader at an excitation wavelength of 320 nm and emission wavelengths of 665 nm and 620 nm.
Step 5: The signal was calculated based on the ratio of Em665/Em620*10000.
(§1) The inhibition percentage (%) was calculated using the following formula: […]
The half-maximal inhibitory concentration (IC50) values were calculated using GraphPad Prism software.

[2] = system: MSTO-211H cells; test: Cell proliferation inhibition experiment (CellTiter-Glo); type: cell-based; conditions: 96 hours, read-out: Inhibitory activity of each compound on the proliferation of MSTO-211H cells (grades of IC50 values)
Procedure: In this example, the intracellular ATP was quantitatively determined by the CellTiter-Glo luminescence cell viability detection kit to detect the number of living cells in the culture.
Step 1: MSTO-211H (ATCC, CRL-2081TM) or NCI-H2052 (ATCC, CRL-5915TM) cells were inoculated in a 96-well plate at a density of 1500 cells per well with a volume of 100 μL per well, and the cells were incubated overnight in a 37° C., 5% carbon dioxide incubator. The culture medium used was RPMI1640 medium (GIBCO-A10491-01)+10% FBS (GIBCO-10099141C)+1% penicillin/streptomycin (Pen/Strep) (GIBCO-15070-063).
Step 2: The cells were treated with the compounds to be tested. The compounds to be tested were 3-fold diluted, and a total of 9 concentration gradients were set up; a certain volume of DMSO or the compounds to be tested was added to each well, respectively, and 2 replicates were set up for each concentration, and the final concentration of DMSO was controlled to be no higher than 0.5%. The cells were incubated for 96 hours in a 37° C., 5% carbon dioxide incubator.
Step 3: Cell viability was detected in the control group and treatment group using CellTiter-Glo Luminescent Cell Viability Assay kit (Promega, G7570). 50 μL of CellTiter-Glo was added to each well, mixed well, and incubated at room temperature for 10 minutes. The signal was read using En Vision® Multilabel Plate Reader (Perkin Elmer).
as §1
Using Graphpad Prism software, the IC50 values of the compounds inhibiting the CTG signal of cell proliferation activity was calculated.

YAP-TEAD protein interaction (His-TEAD1 (209-426) protein, Bio-YAP peptide (60-100)), sequence (P28347 209-426): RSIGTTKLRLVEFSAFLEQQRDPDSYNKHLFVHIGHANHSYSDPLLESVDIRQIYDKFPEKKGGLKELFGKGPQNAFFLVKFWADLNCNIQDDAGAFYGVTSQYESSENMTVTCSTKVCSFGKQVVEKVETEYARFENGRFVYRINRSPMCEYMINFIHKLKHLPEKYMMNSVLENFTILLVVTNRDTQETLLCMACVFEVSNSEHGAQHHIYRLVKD

Molecule | pIC50 [1] | pIC50 ([2]; Homo sapiens) | pIC50 [2]
NC(=O)c1cc2c(c(F)c1-c1c(Cl)c(F)cc3c1C[C@](c1ccccc1)([C@@H]1CCCN1)O3)Oc1c(cnn(CC(F)(F)F)c1=O)O2 (atropisomer, axis not shown) [Compound 143, (S)-8-((S)-5-Chloro-6-fluoro-2-phenyl-2-((S)-pyrrolidin-2-yl)-2,3-dihydrobenzofuran-4-yl)-9-fluoro-1-oxo-2-(2,2,2-trifluoroethyl)-1,2-dihydroxybenzo[5,6][1,4]dioxo[2,3-d]pyridazine-7-carboxamide] | > 7.30 | > 6.70 | 
Cn1nc2c(cc1=O)Oc1c(cc(C(N)=O)c(-c3c(Cl)c(F)cc4c3C[C@](c3ccccc3)([C@@H]3CCCN3)O4)c1F)O2 (atropisomer, axis not shown) [Compound 123, (S)-7-((S)-5-Chloro-6-fluoro-2-phenyl-2-((S)-pyrrolidin-2-yl)-2,3-dihydrobenzofuran-4-yl)-6-fluoro-1-methyl-3-oxo-2,3-trihydrobenzo [5,6][1,4]dioxo [2,3-c]pyridazine-8-carboxamide] | > 7.30 | 6.30 to 6.70 | 
NC(=O)c1cc2cccnc2c(F)c1-c1c(Cl)c(F)cc2c1C[C@](c1ccccc1)([C@@H]1CCCN1)O2 (atropisomer, axis not shown) [Compound 4, (S)-7-((S)-5-Chloro-6-fluoro-2-phenyl-2-((S)-pyrrolidin-2-yl)-2,3-dihydrobenzofuran-4-yl)-8-fluoroquinoline-6-carboxamide] | > 7.30 | > 6.70 | 
(S)-8-((S)-5-Chloro-6-fluoro-2-phenyl-2-((S)-pyrrolidin-2-yl)-2,3-dihydrobenzofuran-4-yl)-9-fluoro-3-methyl-4-oxo-3,4-dihydrobenzo[5,6][1,4]dioxo[2,3-d]pyrimidine-7-carboxamide [Compound 127] | > 7.30 |  | 6.30 to 6.70
Cn1ccc2c(c1=O)Oc1c(cc(C(N)=O)c(-c3c(Cl)c(F)cc4c3C[C@](c3ccccc3)([C@@H]3CCCN3)O4)c1F)O2 (atropisomer, axis not shown) [Compound 135, (S)-8-((S)-5-Chloro-6-fluoro-2-phenyl-2-((S)-pyrrolidin-2-yl)-2,3-dihydrobenzofuran-4-yl)-9-fluoro-2-methyl-1-oxo-1,2-dihydrobenzo[5,6][1,4]dioxo[2,3-c]pyridine-7-carboxamide] | > 7.30 | > 6.70 | 
[2H]C([2H])([2H])n1ncc2c(c1=O)Oc1c(cc(C(=O)NC)c(-c3c(Cl)c(F)cc4c3C[C@](c3ccccc3)([C@@H]3CCCN3)O4)c1F)O2 (atropisomer, axis not shown) [Compound 151, (S)-8-((S)-5-Chloro-6-fluoro-2-phenyl-2-((S)-pyrrolidin-2-yl)-2,3-dihydrobenzofuran-4-yl)-9-fluoro-N-methyl-2-(methyl-d3)-1-oxo-1,2-dihydrobenzo[5,6][1,4]dioxo [2,3-d]pyridazine-7-carboxamide] | > 7.30 | > 6.70 | 
NC(=O)c1cc2c(c(F)c1-c1c(Cl)c(F)cc3c1C[C@](c1ccccc1)([C@@H]1CCCN1)O3)Oc1ncccc1C2O (stereo partly drawn) [Compound 104, (S)-8-((S)-5-Chloro-6-fluoro-2-phenyl-2-((S)-pyrrolidin-2-yl)-2,3-dihydrobenzofuran-4-yl)-9-fluoro-5-hydroxy-5H-benzo[2,3-b]pyridine-7-carboxamide] | > 7.30 | 6.30 to 6.70 | 
Cn1ncc2c(c1=O)Oc1cc(C(N)=O)c(-c3c(Cl)c(F)cc4c3CC(c3ccccc3)(C3CCCN3)O4)c(F)c1O2 [Compound 106, (S)-8-((S)-5-Chloro-6-fluoro-2-phenyl-2-((S)-pyrrolidin-2-yl)-2,3-dihydrobenzofuran-4-yl)-9-fluoro-3-methyl-4-oxo-3,4-dihydrobenzo[5,6][1,4]dioxo[2,3-d]pyridazine-7-carboxamide] | > 7.30 | 6.30 to 6.70 | 
[2H]C1([2H])CC[C@]([2H])([C@@]2(c3ccccc3)Cc3c(cc(F)c(Cl)c3-c3c(C(N)=O)cc4c(c3F)Oc3c(cnn(CCC(F)(F)F)c3=O)O4)O2)N1 (atropisomer, axis not shown) [Compound 155, (S)-8-((S)-5-Chloro-6-fluoro-2-phenyl-2-((S)-pyrrolidin-2-yl-2,5,5-d3)-2,3-dihydrobenzofuran-4-yl)-9-fluoro-1-oxo-2-(3,3,3-trifluoropropyl)-1,2-dihydroxybenzo[5,6][1,4] dioxo[2,3-d]pyridazine-7-carboxamide] | > 7.30 | > 6.70 | 

The next lines start with results.

pIC50 [1] | Molecule | pIC50 ([2]; Homo sapiens) | pIC50 [2]
> 7.30 | [2H]C([2H])([2H])n1ncc2c(c1=O)Oc1c(cc(C(N)=O)c(-c3c(Cl)c(F)cc4c3C[C@](c3ccccc3)([C@@H]3CCCN3)O4)c1F)O2 (atropisomer, axis not shown) [Compound 131, (S)-8-((S)-5-Chloro-6-fluoro-2-phenyl-2-((S)-pyrrolidin-2-yl)-2,3-dihydrobenzofuran-4-yl)-9-fluoro-2-(methyl-d3)-1-oxo-1,2-dihydrobenzo[5,6][1,4]dioxo[2,3-d]pyridazine-7-carboxamide] | > 6.70 | 
> 7.30 | CNC(=O)c1cc2c(c(F)c1-c1c(Cl)c(F)cc3c1C[C@](c1ccccc1)([C@@H]1CCCN1)O3)Oc1c(cnn(CCOC)c1=O)O2 (atropisomer, axis not shown) [Compound 150, (S)-8-((S)-5-Chloro-6-fluoro-2-phenyl-2-((S)-pyrrolidin-2-yl)-2,3-dihydrobenzofuran-4-yl)-9-fluoro-2-(2-methoxyethyl)-N-methyl-1-oxo-1,2-dihydrobenzo [5,6][1,4]dioxo [2,3-d]pyridazine-7-carboxamide] | > 6.70 | 
> 7.30 | CNC[C@@]1(c2ccccc2)Cc2c(cc(F)c(Cl)c2-c2c(C(N)=O)cc3c(c2F)OCCN3)O1 (atropisomer, axis not shown) [Compound I-17, (S)-7-((S)-5-Chloro-6-fluoro-2-((methylamino)methyl)-2-phenyl-2,3-dihydrobenzofuran-4-yl)-8-fluoro-3,4-dihydro-2H-benzo[b][1,4]oxazine-6-carboxamide] | > 6.70 | 
> 7.30 | CCn1ncc2c(c1=O)Oc1c(cc(C(N)=O)c(-c3c(Cl)c(F)cc4c3C[C@](c3ccccc3)([C@@H]3CCCN3)O4)c1F)O2 (atropisomer, axis not shown) [Compound 109, (S)-8-((S)-5-Chloro-6-fluoro-2-phenyl-2-((S)-pyrrolidin-2-yl)-2,3-dihydrobenzofuran-4-yl)-2-ethyl-9-fluoro-1-oxo-1,2-dihydrobenzo[5,6][1,4]dioxo [2,3-d]pyridazine-7-carboxamide] | > 6.70 | 
> 7.30 | NC(=O)c1cc2c(c(F)c1-c1c(Cl)c(F)cc3c1C[C@](c1ccccc1)([C@@H]1CCCN1)O3)Oc1c(cn[nH]c1=O)O2 (atropisomer, axis not shown) [Compound 107, (S)-8-((S)-5-Chloro-6-fluoro-2-phenyl-2-((S)-pyrrolidin-2-yl)-2,3-dihydrobenzofuran-4-yl)-9-fluoro-1-oxo-1,2-dihydrobenzo[5,6][1,4]dioxo [2,3-d]pyridazine-7-carboxamide] | > 6.70 | 
> 7.30 | NC(=O)c1cc2c(c(F)c1-c1c(Cl)c(F)cc3c1C[C@](c1ccccc1)([C@@H]1CCCN1)O3)Oc1cc(=O)n(C3CC3)nc1O2 (atropisomer, axis not shown) [Compound 129, (S)-8-((S)-5-Chloro-6-fluoro-2-phenyl-2-((S)-pyrrolidin-2-yl)-2,3-dihydrobenzofuran-4-yl)-2-cyclopropyl-9-fluoro-3-oxo-2,3-hydrobenzo[5,6][1,4]dioxo [2,3-c]pyridazine-7-carboxamide] | 6.30 to 6.70 | 
> 7.30 | Cn1cc2c(n1)COc1c-2cc(C(N)=O)c(-c2c(Cl)c(F)cc3c2C[C@@](CN[C@H]2CC[C@H](C(N)=O)CC2)(c2ccccc2)O3)c1F (atropisomer, axis not shown) [Compound 79] | 6.30 to 6.70 | 
